Where a name gives a salt, the structure may show the parent alone.
Columns and labels:
U937 PDE IV = test: Test procedure No. 3: inhibition of PDE-IV isolated from U937 cells; assay type: biochemical; settings: 1 μM [3H]-cAMP; 37° C.; pH 7.8; linear regression of percent inhibition
[1] = system: PDE IV isolated from dog tracheal muscle; test: Test Procedure No. 1: inhibition of PDE IV from canine tracheal muscle (cAMP metabolism); assay type: biochemical, dog (canine); settings: 1 μM 3H-cAMP, 10 μM CI-930, 30° C.
Protocol: A solution containing PDE IV is prepared from canine tracheal muscle as follows:
The dog is euthanized with an overdose of beuthanasia while under anesthesia induced by a 33 mg/kg IV bolus of Nembutal. The trachealis muscle is removed, cleaned of connective tissue, and minced thoroughly. Three to four grams of tissue is then homogenized in Tris-HCl buffer (pH 7.8) using a Polytron. The homogenate is then centrifuged at 25,000×g (4° C.) for 30 minutes. The supernatant is decanted and filtered through four layers of gauze, and applied to a 40 cm×2 cm DEAE-Sepharose column that is equilibrated with Tris-HCl buffer (pH 7.8). The column is then washed with an additional 240 mL of buffer to remove unbound proteins. PDE is eluted using 450 mL of Tris-HCl buffer containing a linear gradient of 0.0-1.0M Na-acetate (80 mL/hr), and 7.5 mL fractions are collected. Each fraction is assayed for cAMP- and cGMP-metabolizing PDE activity. Fractions eluting at approximately 0.6M Na-acetate, and containing cAMP but not cGMP metabolic activity are pooled and used as a PDE stock solution for assaying PDE IV inhibitory activity.
CI-930 is included as an inhibitor of the cyclic GMP-sensitive, cyclic AMP-selectivePDE (PDE III) that is also present in the PDE IV stock solution when prepared as described above.
The two abovementioned PDE IV inhibition tests were used to determine the PDE IV inhibitory abilities of some of the compounds of the present invention.

PDE IV = test: Test Procedure No. 2: functional PDE IV inhibition, relaxation of carbachol-precontracted tracheal rings with CI-930; assay type: cell-based, guinea pig (Male Hartley); settings: guinea pig tracheal rings precontracted with 1 μM carbachol; CI-930 10 μM; read-out: Test No. 2 IC50 (functional PDE inhibitory test)
Protocol: The following standard test is also employed to assess the abilities of compounds to inhibit PDE IV functionally.
Male Hartley guinea pigs (500-550 g, Charles River) were euthanized by a blow to the head, and the tracheas were removed and placed in aerated physiological salt solution (PSS) containing NaCl ([…]), KH2 PO4 ([…]), KCl (4.74 mM), CaCl2 (2.5 mM), MgSO4.7H2 O ([…]), NaHCO3 (25 mM), dextrose (11.1 mM), cocaine and hydrocortisone (3 μM and 10 μM, respectively, to block intraneural and extraneural uptake mechanisms), propranolol and phentolamine (1 μM and 10 μM, respectively, to block adrenoceptors),indomethacin (2.8 μM; to block spontaneous tension generation), and calcium disodium EDTA (26 μM, as an antioxidant). Tracheal rings were prepared and mounted in 10 ml organ baths for the measurement of isometric tension generation as previously described (Heaslip et al., 1986).
Tracheal relaxation resulting from the inhibition of PDE-IV or PDE-III was assessed by a method similar to that employed by Harris et al. (1989). Tracheal rings were precontracted with 1 μM carbachol until a stable level of tension was obtained (30 min). To explore the inhibition of PDE-IV, tracheal rings were then incubated (45 min) with CI-930 (10 μM), thus inhibiting PDE-III and sensitizing the ring to the relaxant effects of PDE-IV inhibitors. Conversely, the inhibition of tracheal PDE-III was explored using rings pretreated with rolipram (10 μM), and thereby sensitized to PDE-III inhibitors (Harris et al., 1989). The functional inhibition of PDE-IV or PDE-III was determined by adding a test compound to the tissue bath in cumulatively increasing concentrations and monitoring the degree of relaxation induced in the continued presence of CI-930 or rolipram (respectively). After adding the final concentration of test compound to the organ bath, tracheal rings were washed repeatedly with PSS, and allowed to relax to resting tension. Percent relaxations produced by each concentration of test compound were calculated as a percentage relaxation of tension maintained in the presence of the preincubating PDE inhibitor, relative to the final resting tension determined at the end of each experiment.
The two abovementioned PDE IV inhibition tests were used to determine the PDE IV inhibitory abilities of some of the compounds of the present invention. The table below indicates the compounds tested and the results thereof. For each of Tests 1 and 2, the results are given as IC50 s for the compound tested in M concentrations.

| SMILES | IC50 ([1]; pH 7.8) | further results |
| --- | --- | --- |
| COc1ccc(-c2ccc(C(=O)NCc3cccnc3)cc2)cc1OC1CCCC1 [Comparative Example 1, 3'-Cyclopentyloxy-4'-methoxy-biphenyl-4(3-methylpryridyl) carboxylic acid amide, reference compound] |  | IC50 (U937 PDE IV): > 1000 nM |
| COc1ccc(-c2ccc(C(=O)O)cc2)cc1OC1CCCC1 [Example 1, 3'-Cyclopentyloxy-4'-methoxy-biphenyl-4-carboxylic acid] | 245 nM | IC50 (U937 PDE IV): 230 nM |
| COc1ccc(-c2ccc(C(N)=O)cc2)cc1OC1CCCC1 [Example 2, 3'-Cyclopentyloxy-4'-methoxy-biphenyl-4-carboxylic acid amide] | 60 nM | IC50 (PDE IV): 160 nM |
| COc1ccc(-c2ccc(C(=O)NN)cc2)cc1OC1CCCC1 [Example 3, 3'-Cyclopentyloxy-4'-methoxy-biphenyl-4-carboxylic acid hydrazide] | 58 nM | IC50 (PDE IV): 66 nM |
| COc1ccc(-c2cccc(C(=O)NN)c2)cc1OC1CCCC1 [Example 4, 3'-Cyclopentyloxy-4'-methoxy-biphenyl-3-carboxylic acid hydrazide] | 100 nM |  |
| COc1ccc(-c2cccc(C(=O)O)c2)cc1OC1CCCC1 [Example 5, 3'-Cyclopentyloxy-4'-methoxy-biphenyl-3-carboxylic acid] | 23 nM | IC50 (PDE IV): 61 nM |
| COc1ccc(-c2ccc(Cl)cc2)cc1OC1CCCC1 [Example 6, 4-Chloro-3'-Cyclopentyloxy-4'-methoxy-biphenyl] | 100 nM | IC50 (PDE IV): 12000 nM |
| COc1ccc(-c2cccc(C=O)c2)cc1OC1CCCC1 [Example 8, 3'-Cyclopentyloxy-4'-methoxy-biphenyl-3-carbaldehyde] | 34 nM | IC50 (PDE IV): 330 nM |
| COc1ccc(-c2ccc(C=O)cc2)cc1OC1CCCC1 [Example 9, 3'-Cyclopentyloxy-4'-methoxy-biphenyl-4-carbaldehyde] | 20 nM | IC50 (PDE IV): 23 nM |
| COc1ccc(-c2ccccc2C=O)cc1OC1CCCC1 [Example 10, 3'-Cyclopentyloxy-4'-methoxy-biphenyl-2-carbaldehyde] | 100 nM |  |
| COc1ccc(-c2cccc(C(C)=O)c2)cc1OC1CCCC1 [Example 11, 1-(3'-Cyclopentyloxy-4'-methoxy-biphenyl-3-yl)-ethanone] | 4.3 nM |  |
| COc1ccc(-c2ccc(C(C)=O)cc2)cc1OC1CCCC1 [Example 12, 1-(3'-Cyclopentyloxy-4'-methoxy-biphenyl-4-yl)-ethanone] | 86 nM |  |
| COc1ccc(-c2ccc(C(=O)c3ccccc3)cc2)cc1OC1CCCC1 [Example 13, (3'-Cyclopentyloxy-4'-methoxy-biphenyl-4-yl)-phenylmethanone] | 610 nM |  |
| COc1ccc(-c2cccc(C#N)c2)cc1OC1CCCC1 [Example 14, 3'-Cyclopentyloxy-4'-methoxy-biphenyl-3-carbonitrile] | 84 nM |  |
| COc1ccc(-c2ccc(N)cc2)cc1OC1CCCC1 [Example 16, 3'-Cyclopentyloxy-4'-methoxybiphenyl-4-ylamine] | 330 nM |  |
| COc1ccc(-c2ccc(C(=O)O)cc2)cc1OC1CCCC1 [Example 17, 3'-Cyclopentyloxy-4'-methoxy-biphenyl-4-carboxylic acid sodium salt] |  | IC50 ([1]; pH 7.8, sodium salt): 110 nM |

| SMILES | IC50 ([1]; pH 7.8) | further results |
| --- | --- | --- |
| COC(=O)c1cccc(-c2ccc(OC)c(OC3CCCC3)c2)c1 [Example 18, 3'-Cyclopentyloxy-4'-methoxy-biphenyl-3-carboxylic acid methyl ester] | 31 nM | IC50 (PDE IV): 230 nM |
| COC(=O)c1ccc(-c2ccc(OC)c(OC3CCCC3)c2)cc1 [Example 19, 3'-Cyclopentyloxy-4'-methoxy-biphenyl-4-carboxylic acid methyl ester] | 580 nM |  |
| COc1ccc(-c2ccc3c(c2)CCCC3=O)cc1OC1CCCC1 [Example 20, 6-(3-Cyclopentyloxy-4-methoxy-phenyl)-3,4-dihydro-2H-naphthalen-1-one] | 59 nM |  |
| COc1ccc(-c2ccc3c(c2)CCC/C3=N\O)cc1OC1CCCC1 [Example 21, (E)-6-(3-Cyclopentyloxy-4-methoxy-phenyl)-3,4-dihydro-2H-naphthalen-1-one oxime] | 290 nM |  |
| COc1ccc(-c2ccc(C=NO)cc2)cc1OC1CCCC1 [Example 22, 3'-Cyclopentyloxy-4'-methoxy-biphenyl-4-carbaldehyde oxime] | 36 nM | IC50 (PDE IV): 140 nM |
| COc1ccc(-c2cccc(C=NO)c2)cc1OC1CCCC1 [Example 23, 3'-Cyclopentyloxy-4'-methoxy-biphenyl-3-carbaldehyde oxime] | 39 nM | IC50 (PDE IV): 1900 nM |
| COc1ccc(-c2ccc3c(c2)CCC/C3=N\OC(C)=O)cc1OC1CCCC1 [Example 25, E-6-(3-Cyclopentyloxy-4-methoxy-phenyl)-3,4-dihydro-2H-naphthalen-1-one oxime acetate] | 730 nM |  |
| COc1ccc(-c2ccc(NC(N)=O)cc2)cc1OC1CCCC1 [Example 26, (3'-Cyclopentyloxy-4'-methoxy-biphenyl-4-yl)-urea] | 270 nM |  |
| COc1ccc(-c2cccc(NC(N)=O)c2)cc1OC1CCCC1 [Example 27, (3'-Cyclopentyloxy-4'-methoxy-biphenyl-3-yl)-urea] | 550 nM |  |
| COc1ccc(-c2ccc(NC(C)=O)cc2)cc1OC1CCCC1 [Example 28, N-(3'-Cyclopentyloxy-4'-methoxy-biphenyl-4-yl)-acetamide] | 1000 nM |  |
| COc1ccc(-c2cccc(NC(C)=O)c2)cc1OC1CCCC1 [Example 29, N-(3'-Cyclopentyloxy-4'-methoxy-biphenyl-3-yl)-acetamide] | 470 nM |  |
| COc1ccc(-c2cccc(C(N)=O)c2)cc1OC1CCCC1 [Example 30, 3'-Cyclopentyloxy-4'-methoxy-biphenyl-3-carboxylic acid amide] | 16 nM |  |
| COc1ccc(-c2ccc(C(=O)NO)cc2)cc1OC1CCCC1 [Example 31, 3'-Cyclopentyloxy-4'-methoxy-biphenyl-4-carboxylic acid hydroxylamide] | 100 nM |  |
| COc1ccc(-c2ccc(C(=O)O)c(C(=O)O)c2)cc1OC1CCCC1 [Example 32, 3'-Cyclopentyloxy-4'-methoxy-biphenyl-3,4-dicarboxylic acid] | 10000 nM |  |
| COC(=O)c1ccc(-c2ccc(OC)c(OC3CCCC3)c2)cc1C(=O)OC [Example 33, 3'-Cyclopentyloxy-4'-methoxy-biphenyl-3,4-dicarboxylic acid dimethyl ester] | 1100 nM |  |
| COc1ccc(-c2ccc3c(=O)[nH][nH]c(=O)c3c2)cc1OC1CCCC1 [Example 34, 6-(3'-Cyclopentyloxy-4-methoxyphenyl)-2,3-dihydrophthalizine-1,4-dione] | 49 nM |  |

— patent US5691376A, “Substituted biphenyl derivatives” (American Home Products Corporation, priority 1996, dated 1997)
